# According to paper PMC12661054, “The CIP2A-TOPBP1 axis facilitates mitotic DNA repair via MiDAS and MMEJ” (Nature Communications, 2025):
# Key:
# [1] = system: eGFP-SLX4 interaction with TOPBP1, MUS81, ERCC1; test: eGFP-SLX4 co-immunoprecipitation, mitotic HEK293TN cells; format: cell-based, human; details: eGFP-SLX4 Co-IP; RO-3306 7 µM, 30 min, nocodazole-synchronised
# Experimental: (§1) GFP-Trap® Agarose Co-immunoprecipitation
# (§2) HEK293TN cells were seeded to be ~25–30% confluence the next day in a 15 cm tissue culture dish. The following day cells were transfected using Lipofectamine 2000 transfection reagent (Thermo Fisher Scientific) with 24 µg of plasmid DNA encoding eGFP-SLX4 or eGFP-TOPBP1 expression cassettes following manufacturer’s instructions.
# Forty eight hours post transfection cells were harvested after treatments as described, snap frozen on dry ice and stored at −80 °C. Cell pellets were removed from −80 storage and thawed on ice in 2.4 ml IP buffer 1 (100 mM NaCl, 0.2% Igepal CA-630, 1 mM MgCl2, 10% glycerol, 5 mM NaF, 50 mM Tris-HCl, pH 7.5), supplemented with EDTA Free […] protease inhibitor (Sigma Aldrich) and 25 U ml−1 Benzonase (Novagen). Cells were resuspended and rotated at 4 °C for 90 min. Benzonase was then inhibited by adjusted NaCl concentration to 200 mM and with the addition of 2 mM EDTA, followed by rotation for a further 30 min at 4 °C on a carousel. The cell suspension was then centrifuged at 16,000 x g for 25 min at 4 °C. […] The supernatant, now containing eluted material, was transferred to a new 1.5 ml microcentrifuge tube ready for downstream western blot analysis.
# [2] = system: eGFP-TOPBP1 interaction with SLX4, MUS81, ERCC1, BTR complex; test: eGFP-TOPBP1 co-immunoprecipitation, mitotic HEK293TN cells; format: cell-based, human; details: eGFP-TOPBP1 Co-IP; RO-3306 7 µM, 30 min
# Experimental: as §1, §2
# Forty eight hours post transfection cells were harvested after treatments as described, snap frozen on dry ice and stored at −80 °C. Cell pellets were removed from −80 storage and thawed on ice in 2.4 ml IP buffer 1 (100 mM NaCl, 0.2% Igepal CA-630, 1 mM MgCl2, 10% glycerol, 5 mM NaF, 50 mM Tris-HCl, pH 7.5), supplemented with EDTA Free […] protease inhibitor (Sigma Aldrich) and 25 U ml−1 Benzonase (Novagen). Cells were resuspended and rotated at 4 °C for 90 min. Benzonase was then inhibited by adjusted NaCl concentration to 200 mM and with the addition of 2 mM EDTA, followed by rotation for a further 30 min at 4 °C on a carousel. The cell suspension was then centrifuged at 16,000 x g for 25 min at 4 °C. In parallel, 20 µl agarose binding control bead (bab, Chromotek) slurry was washed with 500 µl IP buffer 2 (200 mM NaCl, 0.2% Igepal CA-630, 1 mM MgCl2, 10% glycerol, 5 mM NaF, 2 mM EDTA, 50 mM Tris-HCl, pH 7.5). The binding control beads were then centrifuged at 2500 x g for 2 min. The supernatant was then removed and the IP2 wash was repeated twice more. Cell lysates (soluble supernatant) were then collected added to the agarose binding control beads in 15 ml centrifuge tubes and subsequently rotated at 4 °C on carousel for 60 min. The agarose binding control beads were then pelleted by centrifugation at 2000 x g for 2 min, the supernatant was then transferred to a new tube. BCA assay was then carried out to determine the protein concentration of the pre-cleared cell lysate. […] The supernatant, now containing eluted material, was transferred to a new 1.5 ml microcentrifuge tube ready for downstream western blot analysis.
compound,measurement,setting,value
O=C1NC(=NCc2cccs2)S/C1=C\c1ccc2ncccc2c1 [CDK1i],SLX4 Thr1260 phosphorylation and binding of TOPBP1,[1],reduced SLX4 phosphorylation of Thr1260 and binding of TOPBP1
same,eGFP-SLX4 interaction with MUS81 or ERCC1,[1],did not affect its interaction with MUS81 or ERCC1
same,interaction between TOPBP1 and MUS81 or ERCC1,[2],disrupted the interaction between TOPBP1 and MUS81 or ERCC1
same,interaction between TOPBP1 and components of the BTR complex,[2],did not affect the interaction between TOPBP1 and components of the BTR complex
same,interaction between eGFP-TOPBP1 and SLX4,[2],hindered the interaction between eGFP-TOPBP1 and SLX4
